Results taken from publication PMC7913927, “Leishmanicidal Activity of Betulin Derivatives in Leishmania amazonensis; Effect on Plasma and Mitochondrial Membrane Potential, and Macrophage Nitric Oxide and Superoxide Production” (Microorganisms, 2021).

Legend:
[1] = test system: VE98MR intracellular amastigotes in J774.1 macrophages; experiment: Macrophage-amastigote model, patient isolate VE98MR; type: cell-based, Leishmania amazonensis
Protocol: (§1) We used a previously described methodology, with some modifications. Macrophage monolayers, grown in RMPIc medium, for 3 days, were detached from the bottom of the culture chamber, by physical treatment (low temperature and light strokes). Obtained macrophages were seeded in flat-bottom 96-well culture plates, at a density of 2 × 10^5 cells mL^−1 (40,000 macrophages/well), in a final volume of 200 µL. Plates were incubated for 2 h, and the supernatant was discarded to remove non-adhered macrophages. Medium was replaced with stationary-phase promastigotes suspended in 200 µL of RPMIc (2 × 10^6 parasites mL^−1, 400,000 parasites/well), at a macrophage: parasite ratio 1:10 [40]. The plates were incubated for 4 h. Afterwards the medium was replaced with fresh RPMIc and increasing concentrations of compounds or drugs tested were applied, in volumes of 2 µL, according to the different treatment groups. Plates were kept for 72 h, at 37 °C and 5% CO2. The medium was discarded and the wells were washed twice with PBS. Next, a Giemsa staining was performed in situ. It consisted of adding 200 µL of methanol/well, incubating for 5 min, discarding the fixative, and letting it dry at room temperature. Later, the Giemsa solution (10% in PBS w/v, 200 µL/well) was added, incubated for 10 min, and washed with PBS, allowing it to dry. Finally, the bottom of the plates was detached by percussion and the circular bottoms (wells) were fixed to slides with Permount synthetic resin, for later evaluation (Alcazar W., manuscript in preparation). Cell counting was performed with a 100× immersion objective. A minimum of 200 random macrophages were examined. The percentage of infected macrophages (% infection) and the average number of amastigotes present in infected macrophages (amastigotes) were determined. […] The infection rate represents the number of intracellular amastigotes per 100 macrophages evaluated. Additionally, the GI50 for the decrease in the infection rate was calculated. At least three independent experiments were performed. The effect of amphotericin-B (AmB) [Sigma-Aldrich, (St. Louis, MO, USA)] was included as positive control of the assay.

[2] = test system: L. (L.) amazonensis LTB0016 promastigotes; experiment: Promastigote in vitro susceptibility (Alamar Blue/resazurin), reference strain; type: cell-based, Leishmania amazonensis; conditions: Leishmania amazonensis; LTB0016 promastigotes, 72 h; read-out: Promastigote (GI50) mean
Protocol: The fluorometric method of Alamar Blue® (resazurin) was used. Promastigotes grown in biphasic agar-blood medium, at the exponential phase of growth, were seeded in flat-bottom 96-well culture plates, at a cell density of 1 × 10^6 parasites mL^−1 (200,000 parasites/well), in 180 µL of RPMIc without phenol red. Subsequently, either a sole concentration (50 µM), or increasing concentrations of compounds or drugs were applied, according to each treatment group, in volumes of 2 µL. Plates were kept at 26 °C, in a humid chamber, for 72 h. […] Live parasites are metabolically active and capable of reducing non-fluorescent resazurin (blue) to fluorescent resorufin (red). Fluorescence intensity is directly proportional to the number of viable cells. […] At least two independent experiments were performed in duplicate. The effect of trivalent antimonial [SbIII, potassium antimonyl tartrate trihydrate, Sigma-Aldrich, (St. Louis, MO, USA)] was included as positive control of the assay.

[3] = Cytotoxicity (Alamar Blue) in macrophages; type: cell-based, murine; conditions: mouse, J774.1 macrophages
Protocol: In flat-bottom 96-well culture plates, J774.1 macrophages were seeded at a cell density of 5 × 10^4 mL^−1 (10,000 macrophages/well) in 200 µL of RPMIc. After 24 h at 37 °C, 5% CO2, medium was replaced by 180 µL of RPMIc, without phenol red, and increasing concentrations of test compounds in 2-µL volumes. […] At least two independent experiments were performed in duplicate. Based on the inhibition of cell growth caused by the tested compounds, the percentage of growth inhibition compared to untreated cells was calculated. […] Selectivity indices (SI) were calculated, dividing the macrophage CC50 by the parasites GI50 (SI = CC50/GI50).

[4] = test system: VE2000MM intracellular amastigotes in J774.1 macrophages; experiment: Macrophage-amastigote model, patient isolate VE2000MM; type: cell-based, Leishmania amazonensis
Protocol: as §1

[5] = test system: LTB0016 intracellular amastigotes in J774.1 macrophages; experiment: Macrophage-amastigote model, reference strain; type: cell-based, Leishmania amazonensis
Protocol: as §1

[6] = J774.1 CC50 / intracellular amastigote GI50, Table 2

C[C@@H]1[C@H](O)[C@@H](C)/C=C/C=C/C=C/C=C/C=C/C=C/C=C/[C@H](O[C@@H]2O[C@H](C)[C@@H](O)[C@H](N)[C@@H]2O)C[C@@H]2O[C@](O)(C[C@@H](O)C[C@@H](O)[C@H](O)CC[C@@H](O)C[C@@H](O)CC(=O)O[C@H]1C)C[C@H](O)[C@H]2C(=O)O [AmB, amphotericin-B, reference compound]
SI (CC50/GI50) VE98MR [1, 6]: >136
GI50 ([1]; Leishmania amazonensis, J774.1, intracellular amastigotes, 72 h, Table 2, read-out: GI50 (µM) VE98MR): 0.073 µM
Growth (%) Exp1 %Control ([1]; VE98MR, dose 0.10 µM, Exp1): 10.60%
Growth (%) Exp1 A/100MØ ([1]; VE98MR, dose 0.10 µM, Exp1): 17.06
Growth (%) Exp1 A/MØ ([1]; VE98MR, dose 0.10 µM, Exp1): 1.26
Growth (%) Exp1 Infección ([1]; VE98MR, dose 0.10 µM, Exp1): 13.54%
Growth (%) Exp2 %Control ([1]; VE98MR, dose 0.10 µM, Exp2): 2.71%
Growth (%) Exp2 A/100MØ ([1]; VE98MR, dose 0.10 µM, Exp2): 5.60
Growth (%) Exp2 A/MØ ([1]; VE98MR, dose 0.10 µM, Exp2): 1.16
Growth (%) Exp2 Infección ([1]; VE98MR, dose 0.10 µM, Exp2): 4.83%
Growth (%) Exp3 %Control ([1]; VE98MR, dose 0.10 µM, Exp3): 6.21%
Growth (%) Exp3 A/100MØ ([1]; VE98MR, dose 0.10 µM, Exp3): 15.40
Growth (%) Exp3 A/MØ ([1]; VE98MR, dose 0.10 µM, Exp3): 2.00
Growth (%) Exp3 Infección ([1]; VE98MR, dose 0.10 µM, Exp3): 7.70%
Average A/100MØ ([1]; VE98MR, dose 0.10 µM, average of Exp1-3): 12.69
GI50 [2]: 68 nM
CC50 at 72 h [3]: > 10000 nM
SI (CC50/GI50) VE2000MM [4, 6]: >125
GI50 ([4]; Leishmania amazonensis, J774.1, intracellular amastigotes, 72 h, Table 2, read-out: GI50 (µM) VE2000MM): 0.08 µM
Growth (%) Exp1 %Control ([4]; VE2000MM, dose 0.10 µM, Exp1): 7.30%
Growth (%) Exp1 A/100MØ ([4]; VE2000MM, dose 0.10 µM, Exp1): 18.04
Growth (%) Exp1 A/MØ ([4]; VE2000MM, dose 0.10 µM, Exp1): 1.70
Growth (%) Exp1 Infección ([4]; VE2000MM, dose 0.10 µM, Exp1): 10.61%
Growth (%) Exp2 %Control ([4]; VE2000MM, dose 0.10 µM, Exp2): 9.84%
Growth (%) Exp2 A/100MØ ([4]; VE2000MM, dose 0.10 µM, Exp2): 23.78
Growth (%) Exp2 A/MØ ([4]; VE2000MM, dose 0.10 µM, Exp2): 2.17
Growth (%) Exp2 Infección ([4]; VE2000MM, dose 0.10 µM, Exp2): 10.96%
Growth (%) Exp3 %Control ([4]; VE2000MM, dose 0.10 µM, Exp3): 7.62%
Growth (%) Exp3 A/100MØ ([4]; VE2000MM, dose 0.10 µM, Exp3): 17.22
Growth (%) Exp3 A/MØ ([4]; VE2000MM, dose 0.10 µM, Exp3): 2.00
Growth (%) Exp3 Infección ([4]; VE2000MM, dose 0.10 µM, Exp3): 8.61%
Average A/100MØ ([4]; VE2000MM, dose 0.10 µM, average of Exp1-3): 19.68
SI (CC50/GI50) LTB0016 [5, 6]: >500
Growth (%) Exp1 Infección ([5]; LTB0016, 0.10 µM, 72 h, Exp1, % infected macrophages): 12.89%
Growth (%) Exp1 A/MØ ([5]; LTB0016, 0.10 µM, 72 h, Exp1, amastigotes per infected macrophage): 2.10
Growth (%) Exp1 A/100MØ ([5]; LTB0016, 0.10 µM, 72 h, Exp1, infection index): 27.07
Growth (%) Exp1 %Control ([5]; LTB0016, 0.10 µM, 72 h, Exp1, infection index vs DMSO): 10.32%
Growth (%) Exp2 Infección ([5]; LTB0016, 0.10 µM, 72 h, Exp2, % infected macrophages): 13.33%
Growth (%) Exp2 A/MØ ([5]; LTB0016, 0.10 µM, 72 h, Exp2, amastigotes per infected macrophage): 1.38
Growth (%) Exp2 A/100MØ ([5]; LTB0016, 0.10 µM, 72 h, Exp2, infection index): 18.40
Growth (%) Exp2 %Control ([5]; LTB0016, 0.10 µM, 72 h, Exp2, infection index vs DMSO): 8.65%
Growth (%) Exp3 Infección ([5]; LTB0016, 0.10 µM, 72 h, Exp3, % infected macrophages): 8.08%
Growth (%) Exp3 A/MØ ([5]; LTB0016, 0.10 µM, 72 h, Exp3, amastigotes per infected macrophage): 1.33
Growth (%) Exp3 A/100MØ ([5]; LTB0016, 0.10 µM, 72 h, Exp3, infection index): 10.75
Growth (%) Exp3 %Control ([5]; LTB0016, 0.10 µM, 72 h, Exp3, infection index vs DMSO): 6.05%
Average A/100MØ ([5]; LTB0016, 0.10 µM, 72 h, average of Exp1-3): 18.74
GI50 ([5]; Leishmania amazonensis, J774.1, intracellular amastigotes, 72 h, Table 2, read-out: GI50 (µM) LTB0016): 0.02 µM
